Values joined by “and” are separate entries in the source; they are usually repeats but may differ in a detail not shown here. Equal values may be shown once. “Also recorded” adds a separate entry of the source. No end group written: not given here.
What was measured:
[1] = minimal dose of 40 μg; cited from earlier work
[2] = acute administration in humans, case reports; cited from earlier work
[3] = cited from earlier work
[4] = Four week trial of amino acids 176-191 of human growth hormone alone (Example 2); format: in vivo; conditions: for Bowel Habits (per day): one value per test subject
Source text: Ten subjects were given a daily subcutaneous dose of 2 International Units (IU) of amino acids 176-191 of human growth hormone for a four week trial period.

hGH receptor = target: T1, hGH receptor (Homo sapiens, UniProt P10912); conditions: unlike Human Growth Hormone; cited from earlier work
T1 sequence (P10912 19-638): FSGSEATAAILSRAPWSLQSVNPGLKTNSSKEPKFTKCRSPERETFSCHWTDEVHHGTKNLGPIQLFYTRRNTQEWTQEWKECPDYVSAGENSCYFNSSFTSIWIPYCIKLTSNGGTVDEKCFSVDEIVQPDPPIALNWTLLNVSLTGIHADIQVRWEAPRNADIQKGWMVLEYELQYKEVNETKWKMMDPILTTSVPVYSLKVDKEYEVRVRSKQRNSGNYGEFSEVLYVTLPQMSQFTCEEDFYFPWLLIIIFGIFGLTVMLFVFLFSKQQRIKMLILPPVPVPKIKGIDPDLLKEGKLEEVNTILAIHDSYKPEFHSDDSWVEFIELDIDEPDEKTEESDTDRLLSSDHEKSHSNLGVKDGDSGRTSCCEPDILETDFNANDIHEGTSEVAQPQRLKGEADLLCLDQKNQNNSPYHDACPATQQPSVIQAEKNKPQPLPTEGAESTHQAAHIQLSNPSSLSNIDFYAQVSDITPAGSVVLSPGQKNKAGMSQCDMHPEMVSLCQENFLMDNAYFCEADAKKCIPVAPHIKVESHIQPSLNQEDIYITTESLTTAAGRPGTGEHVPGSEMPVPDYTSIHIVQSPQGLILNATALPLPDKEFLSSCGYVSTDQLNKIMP

cell proliferation = conditions: unlike Human Growth Hormone; cited from earlier work
[5] = test system: isolated adipose tissue from obese humans; conditions: cited from earlier work
[6] = test system: isolated adipose tissue from obese rodents; conditions: cited from earlier work
ob/ob mice = conditions: cited from earlier work
adipose tissue = conditions: cited from earlier work
[7] = Cloprostenol sodium alone in male and female subjects (Example 1); format: in vivo, human
Experimental: Cloprostenol sodium was taken by eight male and two female subjects at a dosage of 120 micrograms for every 2501b (113 kg) body weight. The dosage was calculated pro rata based on the weight of the subject involved.
With the female subjects the process was identical. However, the dosage was reduced to 15 μg per shot for menstrual reasons.

[8] = ten subjects, daily subcutaneous 2 IU, four weeks

Molecule: O=C(O)CCC/C=C\C[C@@H]1C(/C=C/[C@@H](O)COc2cccc(Cl)c2)[C@H](O)C[C@@H]1O (stereo partly drawn) [Cloprostenol, (5Z)-7-[(1R,3R,5S)-2-[(E,3R)-4-(3-chlorophenoxy)-3-hydroxybut-1-enyl]-3,5-dihydroxycyclopentyl]hept-5-enoic acid]
- Bowel evacuation after dosing [1]: within ten minutes users will have to evacuate their bowels

Molecule: O=[N+]([O-])c1ccc(O)c([N+](=O)[O-])c1 [DNP, 2,4-Dinitrophenol]
- Lethal acute administration [2]: 20 to 50 mg/kg

Molecule: YLRIVQCRSVEGSCGF (cysteine pairing not given here) [HGH fragment 176-191, freely available commercially]
- Side effects ([3]; clinical trial and experimental users): No side effects have been reported
- Stimulation of the metabolism of body fat ([3]; humans): highly successful at stimulating the metabolism of body fat in humans
- Average overall weight loss (fat) ([3]; in three months, oral dosing): 3 kg
- Most effective daily dose ([3]; lowest of 6 doses, oral, 3 months): 1 mg
- Weight loss relative to test subjects not taking the peptide ([3]; three months, more than subjects not taking the peptide): 300%
- Body Fat ([4]; Test subject 1, Week 4, start 17%): 15%
- Weight ([4]; Test subject 1, Week 4, start 98 kg): (96 kg)
- Weight ([4]; Test subject 1, Week 4, start 217 lb): 212 lb
- Body Fat ([4]; Test subject 2, Week 4, start 31%): 28%
- Weight ([4]; Test subject 2, Week 4, start 92 kg): (89 kg)
- Weight ([4]; Test subject 2, Week 4, start 203 lb): 196 lb
- Body Fat ([4]; Test subject 3, Week 4, start 18%): 15%
- Weight ([4]; Test subject 3, Week 4, start 108 kg): (106 kg)
- Weight ([4]; Test subject 3, Week 4, start 238 lb): 233 lb
- Body Fat ([4]; Test subject 4, Week 4, start 10%): 10%
- Weight ([4]; Test subject 4, Week 4, start 92 kg): (92 kg)
- Weight ([4]; Test subject 4, Week 4, start 203 lb): 203 lb
- Body Fat ([4]; Test subject 5, Week 4, start 25%): 24%
- Weight ([4]; Test subject 5, Week 4, start 105 kg): (103 kg)
- Weight ([4]; Test subject 5, Week 4, start 231 lb): 226 lb
- Body Fat ([4]; Test subject 6, Week 4, start 32%): 30%
- Weight ([4]; Test subject 6, Week 4, start 68 kg): (67 kg)
- Weight ([4]; Test subject 6, Week 4, start 150 lb): 147 lb
- Body Fat ([4]; Test subject 7, Week 4, start 30%): 28%
- Weight ([4]; Test subject 7, Week 4, start 79 kg): (76 kg)
- Weight ([4]; Test subject 7, Week 4, start 173 lb): 168 lb
- Body Fat ([4]; Test subject 8, Week 4, start 34%): 30%
- Weight ([4]; Test subject 8, Week 4, start 108 kg): (103 kg)
- Weight ([4]; Test subject 8, Week 4, start 238 lb): 226 lb
- Body Fat ([4]; Test subject 9, Week 4, start 10%): 10%
- Weight ([4]; Test subject 9, Week 4, start 79 kg): (79 kg)
- Weight ([4]; Test subject 9, Week 4, start 175 lb): 175 lb
- Body Fat ([4]; Test subject 10, Week 4, start 21%): 18%
- Weight ([4]; Test subject 10, Week 4, start 86 kg): (83 kg)
- Weight ([4]; Test subject 10, Week 4, start 189 lb): 182 lb
- Bowel Habits (per day) ([4]; Week 1, daily subcutaneous 2 IU): 2 per day and 1 per day
- Bowel Habits (per day) ([4]; Week 2, daily subcutaneous 2 IU): 2 per day and 1 per day
- Bowel Habits (per day) ([4]; Week 3, daily subcutaneous 2 IU): 1 per day and 2 per day
- Bowel Habits (per day) ([4]; Week 4, daily subcutaneous 2 IU): 1 per day and 2 per day
- Completion of trial [4, 8]: All subjects completed the four week trial
- Reduction in body fat and weight loss [4, 8]: no real reduction in body fat or meaningful weight loss

Molecule: HGH Fragment 177-191: Human growth hormone fragment of the cited studies; shares amino acid sequence with Human Growth Hormone (LRIVQCRSVEGSCGF; ends and bridges not checked; cysteine pairing not given here; UniProt P01241 203-217, looked up, fragment)
- Competition for the hGH receptor (hGH receptor): does not compete for the hGH receptor
- Induction of cell proliferation (cell proliferation): nor does it induce cell proliferation
- In vitro lipogenic activity [5]: decreased lipogenic activity
- In vitro lipolytic activity [5]: increased in vitro lipolytic activity
- In vitro lipogenic activity [6]: decreased lipogenic activity
- In vitro lipolytic activity [6]: increased in vitro lipolytic activity
- Energy expenditure, glucose and fat oxidation (ob/ob mice): increasing energy expenditure and glucose and fat oxidation
- Lipolytic activity in adipose tissue (adipose tissue; dosage of 500 μg): increase lipolytic activity in adipose tissue
- Impact on insulin sensitivity (adipose tissue; in vivo): no negative impact on insulin sensitivity

Molecule: O=C(O)CCC/C=C\CC1C(O)CC(O)C1/C=C/C(O)COc1cccc(Cl)c1 (centres unmarked) [Cloprostenol sodium, cloprostenol sodium]
- Willingness to continue use ([7]; all recipients): None of the recipients wished to continue to use this product for more than three days
- Side effects and willingness to continue in females ([7]; females, 15 μg per shot): No female subjects wished to continue using this product due to severe stomach cramps
- Side effects in males ([7]; males, shots of 30 μg at a time): very severe stomach cramps and extensive bowel movements
- Comments (stopping of use) ([7]; same dosing, one comment per test subject): Stopped after 2 days; also recorded: Stopped as cramp and pain; also recorded: Stopped after 1st day; also recorded: Stopped after 3 days

Reference: US20150306182A1, “FAT LOSS COMPOSITION” (priority 2012, published 2015)
